Data as given in patent publication US7109338B2, “1,2-disubstituted 1,4-dihydro-4-oxoquinoline compounds” (priority 1999, dated 2006).
In brackets after ≈: the same amount, converted by molar mass.

Assays:
[1] = tested on: human rhinovirus type 1B (HRV 1B, B632); experiment: Anti-rhinovirus activity (MTT), HRV1B; format: cell-based; conditions: Human rhinovirus sp., HRV1B; HeLa (Ohio strain) cells, MTT method, 33° C.; read-out: IC50 HRV1B
HRV 2 (HGP) = experiment: Anti-rhinovirus activity (MTT), HRV2; format: cell-based, human rhinovirus; conditions: Human rhinovirus sp., HRV2; HeLa (Ohio strain) cells, MTT method, 33° C.; read-out: IC50 HRV2
HRV 89 (41617-Gallo) = experiment: Anti-rhinovirus activity (MTT), HRV89; format: cell-based, human rhinovirus; conditions: Human rhinovirus sp., HRV89; HeLa (Ohio strain) cells, MTT method, 33° C.; read-out: IC50 HRV89
[2] = Cytotoxicity (MTT, without virus), HeLa(Ohio); conditions: human, HeLa (Ohio strain) cells (uninfected)
[3] = tested on: Poliovirus type 1 (Polio 1, Sabin); experiment: microbe, parasite or virus in culture; format: cell-based; conditions: Enterovirus C, HeLa S3, read-out: IC50 Polio 1
[4] = tested on: echovirus type 11 (Echo 11, Gregory); experiment: In vitro anti-picornavirus activity (MTT), Echo 11; format: cell-based; conditions: Enterovirus B; HeLa-S3 cells, MTT method, 37° C.
[5] = tested on: coxsackievirus type A7 (CA7); experiment: In vitro anti-picornavirus activity (MTT), CA7; format: cell-based; conditions: Coxsackievirus; HeLa-S3 cells, MTT method, 37° C.
[6] = tested on: coxsackievirus type B4 (CB4,JVB); experiment: In vitro anti-picornavirus activity (MTT), CB4; format: cell-based; conditions: Coxsackievirus; HeLa cells, MTT method, 37° C.
HRV1A (E28) = experiment: Anti-rhinovirus activity (MTT), HRV1A; format: cell-based, human rhinovirus; conditions: Human rhinovirus sp., HRV1A, HeLa, read-out: IC50 HRV 1A
HRV14 (1059) = experiment: Anti-rhinovirus activity (MTT), HRV14; format: cell-based, human rhinovirus; conditions: Human rhinovirus sp., HRV14; HeLa (Ohio strain) cells, MTT method, 33° C.; read-out: IC50 HRV 14
[7] = Cytotoxicity (MTT, without virus), HeLa; conditions: human, HeLa cells (uninfected)
[8] = Cytotoxicity (MTT, without virus), HeLa-S3; conditions: human, HeLa-S3 cells (uninfected)

SMILES | IC50 [1] | IC50 (HRV 2 (HGP)) | IC50 (HRV 89 (41617-Gallo)) | melting point | CC50 at 4 days [2] | IC50 [3] | IC50 [4] | IC50 [5] | IC50 [6] | IC50 (HRV1A (E28)) | IC50 (HRV14 (1059)) | CC50 at 4 days [7] | CC50 at 4 days [8]
Cc1c(-c2ccccc2)n(-c2ccc(Cl)cc2)c2ccc(C(C)C)cc2c1=O [Compound A324, 1-(4-chlorophenyl)-2-phenyl-3-methyl-6-isopropyl-1,4-dihydro-4-oxoquinoline] | 0.53 µg/mL (≈ 1.37 µM) | 0.12 µg/mL (≈ 0.309 µM) | 0.046 µg/mL (≈ 0.119 µM) | 233 to 235 °C | > 1 µg/mL | – | – | – | – | – | – | – | –
CCn1c2c(c(=O)c3cc(C(C)C)ccc31)Cc1ccccc1-2 [Compound B2, 5-Ethyl-8-isopropyl-5,10-dihydro-11H-indeno[1,2-b]quinolin-10-one] | 0.54 µg/mL (≈ 1.78 µM) | 0.15 µg/mL (≈ 0.494 µM) | 0.48 µg/mL (≈ 1.58 µM) | – | > 10 µg/mL | 0.58 µg/mL (≈ 1.91 µM) | 0.19 µg/mL (≈ 0.626 µM) | 3.1 µg/mL (≈ 10.2 µM) | 0.97 µg/mL (≈ 3.2 µM) | 5 µg/mL (≈ 16.5 µM) | 0.65 µg/mL (≈ 2.14 µM) | > 10 µg/mL | > 10 µg/mL
CCn1c2c(c(=O)c3cc(C(C)C)ccc31)Cc1ccsc1-2 [Compound D50, 10-Ethyl-7-isopropyl-5,10-dihydro-4H-thieno[3′,2′:4,5]cyclopenta[1,2-b]quinolin-5-one] | 0.25 µg/mL (≈ 0.808 µM) | 0.2 µg/mL (≈ 0.646 µM) | 0.41 µg/mL (≈ 1.32 µM) | 168 to 169 °C | > 10 µg/mL | 0.64 µg/mL (≈ 2.07 µM) | 0.27 µg/mL (≈ 0.873 µM) | 1.9 µg/mL (≈ 6.14 µM) | 0.82 µg/mL (≈ 2.65 µM) | 2.2 µg/mL (≈ 7.11 µM) | 1.3 µg/mL (≈ 4.2 µM) | 7.8 µg/mL (≈ 25.2 µM) | > 10 µg/mL
CCn1c2c(c(=O)c3cc(C(C)C)ccc31)Cc1cc(C)sc1-2 [Compound D51, 10-Ethyl-7-isopropyl-2-methyl-5,10-dihydro-4H-thieno[3′,2′:4,5]cyclopenta[1,2-b]quinolin-5-one] | 0.59 µg/mL (≈ 1.82 µM) | 0.27 µg/mL (≈ 0.835 µM) | 0.35 µg/mL (≈ 1.08 µM) | – | > 5 µg/mL | 0.28 µg/mL (≈ 0.866 µM) | 0.21 µg/mL (≈ 0.649 µM) | 1.1 µg/mL (≈ 3.4 µM) | 0.72 µg/mL (≈ 2.23 µM) | 3.1 µg/mL (≈ 9.58 µM) | 0.82 µg/mL (≈ 2.54 µM) | > 5 µg/mL | > 5 µg/mL
CCn1c(-c2ccco2)cc(=O)c2cc(C(C)C)ccc21 [Compound A304, 1-Ethyl-2-(2-furyl)-6-isopropyl-1,4-dihydro-4-oxoquinoline] | 0.76 µg/mL (≈ 2.7 µM) | 0.34 µg/mL (≈ 1.21 µM) | 0.9 µg/mL (≈ 3.2 µM) | 70 to 73 °C | 19 µg/mL (≈ 67.5 µM) | 0.8 µg/mL (≈ 2.84 µM) | 0.35 µg/mL (≈ 1.24 µM) | 3.6 µg/mL (≈ 12.8 µM) | 1.9 µg/mL (≈ 6.75 µM) | – | – | 18 µg/mL (≈ 64 µM) | > 20 µg/mL
